The record followed here is ChEMBL document CHEMBL1153652, “Synthesis and biological activity of modified enediyne chemotypes” (Bioorg Med Chem Lett, 1994).

What is called IC50 is the concentration needed to halve the response being measured. Usually T/C stands for the result in the treated group divided by that in the control group, in per cent.

For test [1], the system named is Nucleic Acid. Put plainly: In vitro ability to cleave DNA using supercoiled pM2 DNA without beta-mercaptoethanol at drug concentrations of 2E-5; Greater activity. It is filed as functional.
Test [2] relates to Nucleic Acid. In words: In vitro DNA cleaving activity which induce cell filamentation was evaluated by inducement of the SOS response at a dose of 1000 ug/ml. The class given is functional.
The test system of test [3] is Nucleic Acid. Put plainly: In vitro DNA cleaving activity which induce cell filamentation was evaluated by inducement of the SOS response at a dose of 200 ug/ml. It is filed as functional.
Test [4] relates to Nucleic Acid. In words: In vitro DNA cleaving activity which induce cell filamentation was evaluated by inducement of the SOS response at a dose of 40 ug/ml. It is filed as functional.
The test system of test [5] is Nucleic Acid. In words: In vitro ability to cleave DNA using supercoiled pM2 DNA with beta-mercaptoethanol at drug concentrations of 2E-5; Greater activity. The class given is functional.
The test system of test [6] is HCT-116. In words: Inhibitory concentration was determined for cytotoxicity in HCT116 human colon cancer cell line. The class given is functional, cell-based.
The test system of test [7] is Mus musculus. Put plainly: In vivo relative median survival time of drug treated and control mice in murine Madison 109 (M109) lung carcinoma cells at 64 mg/kg/inj. The class given is functional.
Test [8] has as its system Nucleic Acid. Put plainly: In vitro ability to cleave DNA using supercoiled pM2 DNA without beta-mercaptoethanol at a drug concentration of 2E-5; Greater activity. The class given is functional.
For test [9], the system named is Nucleic Acid. Put plainly: In vitro ability to cleave DNA using supercoiled pM2 DNA with beta-mercaptoethanol at a drug concentration of 2E-5; Greater activity. It is filed as functional.
For test [10], the system named is HCT-116. Put plainly: Inhibitory concentration was determined for cytotoxicity in HCT116 human colon cancer cell line. The class given is functional, cell-based.
For test [11], the system named is Mus musculus. In words: In vivo relative median survival time of drug treated and control mice in murine Madison 109 (M109) lung carcinoma cells at 16 mg/kg/inj. It is filed as functional.

With `O=C1C2=CCCC1(O)C#CC1=C(C#C[C@H]2O)CCC1` (stereo partly specified), the DNA cleavage result in the test on Nucleic Acid [1] and with Nucleic Acid [5] was “Greater activity” in each case. Further, the results for the Area in the test on Nucleic Acid [2], with Nucleic Acid [3] and in the test on Nucleic Acid [4] were 162 mm², 75 mm² and 0 mm², respectively. Also, the IC50 in the test with HCT-116 [6] amounted to 2.2 µM. Moreover, in the test on Mus musculus [7], the T/C was 147%.
As to `O=C1C2=CCCC1(O)C#C/C=C\C#C[C@H]2O` (stereo partly specified), the DNA cleavage entry in the test on Nucleic Acid [8] and in the test on Nucleic Acid [9] was “Greater activity” in each case. In addition, the Area turned out to be 1620 mm² in the test on Nucleic Acid [2], 954 mm² in the test with Nucleic Acid [3] and 427 mm² in the test with Nucleic Acid [4]. The molecule also displayed an IC50 with HCT-116 [10] of 0.1 µM. In the test on Mus musculus [11], this molecule had a T/C of 144%.
With `O=C1C2=CCCC1(O)C#Cc1ccccc1C#C[C@H]2O` (stereo partly specified), the DNA cleavage result with Nucleic Acid [1] and in the test with Nucleic Acid [5] was “Greater activity” each time. Besides, the Area in the test with Nucleic Acid [2], in the test with Nucleic Acid [3] and with Nucleic Acid [4] was 0 mm² each time. This molecule also registered an IC50 in the test with HCT-116 [10] of 1.8 µM. The T/C with Mus musculus [7] is given as 107%.
